Assay results: paper PMC8102066 (eLife, 2021)
Several values for one entry are separate records, joined by “and”; a condition that tells them apart may be missing. Equal values may be shown once.

Assays:
mGluR2-3xTM4 [1] = molecular target: T1, mGluR2-3xTM4 (Rattus norvegicus, UniProt P31421, A677S/A681F/A685G); assay: Inter-LBD FRET (N-terminal SNAP-tags), live cells; conditions: mGluR2-3xTM4, inter-LBD FRET
mGluR2-I779W = molecular target: T2, mGluR2-I779W (Rattus norvegicus, UniProt P31421, I779W); assay: Calcium imaging in HEK 293 T cells; type: cell-based; set-up: scale not given here
T2 construct: we performed calcium imaging experiments with mutations in the full-length mGluR2 background; expressed in transfected cells; host or cells: HEK 293 T
T2 sequence (P31421 19-872 I779W): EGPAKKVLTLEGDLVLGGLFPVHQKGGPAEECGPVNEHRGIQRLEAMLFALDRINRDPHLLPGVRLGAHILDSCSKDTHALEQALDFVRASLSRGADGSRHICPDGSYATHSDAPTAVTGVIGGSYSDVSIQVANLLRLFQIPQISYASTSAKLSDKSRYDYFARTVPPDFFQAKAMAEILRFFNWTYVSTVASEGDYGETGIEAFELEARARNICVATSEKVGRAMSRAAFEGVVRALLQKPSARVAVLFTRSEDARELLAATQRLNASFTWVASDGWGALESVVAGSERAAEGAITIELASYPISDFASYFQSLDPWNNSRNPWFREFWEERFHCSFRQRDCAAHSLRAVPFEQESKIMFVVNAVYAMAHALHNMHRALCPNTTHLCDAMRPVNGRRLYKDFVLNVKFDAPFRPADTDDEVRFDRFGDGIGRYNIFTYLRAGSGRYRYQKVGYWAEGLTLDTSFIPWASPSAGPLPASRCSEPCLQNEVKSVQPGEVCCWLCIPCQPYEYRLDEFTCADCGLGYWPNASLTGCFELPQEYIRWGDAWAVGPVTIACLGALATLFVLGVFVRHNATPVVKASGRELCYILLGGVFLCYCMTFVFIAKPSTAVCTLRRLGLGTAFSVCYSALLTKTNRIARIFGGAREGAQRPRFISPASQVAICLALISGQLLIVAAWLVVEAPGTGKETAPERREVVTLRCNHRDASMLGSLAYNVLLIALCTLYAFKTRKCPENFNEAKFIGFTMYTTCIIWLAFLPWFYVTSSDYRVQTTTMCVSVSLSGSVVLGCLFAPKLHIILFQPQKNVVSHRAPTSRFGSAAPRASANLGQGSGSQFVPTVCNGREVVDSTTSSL
Procedure: Approximately 30 ROIs were analyzed per movie.

mGluR3-F690A = mGluR3-F690A (Rattus norvegicus, UniProt P31422, F690A); assay: Calcium imaging in HEK 293 T cells; conditions: for Calcium response amplitude: mGluR3-F681A
mGluR3-F690A, sequence (P31422 23-879 F690A): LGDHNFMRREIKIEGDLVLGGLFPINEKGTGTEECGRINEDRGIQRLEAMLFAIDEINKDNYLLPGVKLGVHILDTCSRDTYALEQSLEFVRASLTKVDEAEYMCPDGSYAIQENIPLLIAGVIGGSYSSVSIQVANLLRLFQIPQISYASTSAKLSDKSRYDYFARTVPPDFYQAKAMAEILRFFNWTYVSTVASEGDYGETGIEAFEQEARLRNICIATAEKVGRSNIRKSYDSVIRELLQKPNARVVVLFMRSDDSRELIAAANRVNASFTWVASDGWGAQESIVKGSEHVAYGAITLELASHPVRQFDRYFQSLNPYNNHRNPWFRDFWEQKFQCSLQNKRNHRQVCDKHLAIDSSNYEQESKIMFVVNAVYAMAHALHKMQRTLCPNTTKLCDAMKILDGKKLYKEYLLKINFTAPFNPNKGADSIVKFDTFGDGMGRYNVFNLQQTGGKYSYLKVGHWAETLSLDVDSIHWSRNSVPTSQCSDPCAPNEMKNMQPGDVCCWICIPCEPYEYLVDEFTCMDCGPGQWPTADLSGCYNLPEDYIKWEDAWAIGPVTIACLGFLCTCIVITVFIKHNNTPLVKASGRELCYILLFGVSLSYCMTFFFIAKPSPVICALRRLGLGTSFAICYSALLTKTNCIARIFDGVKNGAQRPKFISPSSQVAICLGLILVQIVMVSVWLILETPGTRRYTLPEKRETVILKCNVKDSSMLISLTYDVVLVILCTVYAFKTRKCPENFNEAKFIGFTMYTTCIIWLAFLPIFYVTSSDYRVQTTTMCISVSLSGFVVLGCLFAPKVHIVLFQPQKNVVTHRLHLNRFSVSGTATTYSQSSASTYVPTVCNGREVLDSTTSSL

mGluR2-C121A-I779A = molecular target: T3, mGluR2-C121A-I779A (Rattus norvegicus, UniProt P31421, C121A/I779A); assay: SiMPull subunit counting in the presence of ligands; conditions: SNAP-mGluR2-C121A-I779A in presence of the ligand; single replicates per experiment day
T3 construct: expressed in transfected cells; host or cells: HEK 293 T (detergent lysate, pulled down by anti-HA antibody)
T3 sequence (P31421 19-872 C121A/I779A): as the sequence (P31421 19-872 I779W) above, with C103A, W761A counted along it

mGluR2-3xTM4 [2] = molecular target: T1, mGluR2-3xTM4; assay: GIRK channel whole cell patch clamp in HEK 293 T cells
mGluR2-I779A = molecular target: T4, mGluR2-I779A (Rattus norvegicus, UniProt P31421, I779A); assay: Inter-TMD FRET sensor (HaloTag in ICL2), live cells; type: cell-based; conditions: for FRET response amplitude: mGluR2-I779A, inter-TMD FRET
T4 construct: we performed calcium imaging experiments with mutations in the full-length mGluR2 background; expressed in transfected cells; host or cells: HEK 293 T
T4 sequence (P31421 19-872 I779A): as the sequence (P31421 19-872 I779W) above, with W761A counted along it
Excerpt: Next, we asked how perturbing the TM6 interface would alter the conformational dynamics detected by our TMD FRET sensors.

mGluR2-3xTM4 [3] = molecular target: T5, mGluR2-3xTM4 (Rattus norvegicus, UniProt P31421, A677S/A681F/A685G/INS660ASEIGTGFPFDPHYVEVLGERMHYVDVGPRDGTPVLFLHGNPTSSYVWRNIIPHVAPTHRCIAPDLIGMGKSDKPDLGYFFDDHVRFMDAFIEALGLEEVVLVIHDWGSALGFHWAKRNPERVKGIAFMEFIRPIPTWDEWPEFARETFQAFRTTDVGRKLIIDQNVFIEGTLPMGVVRPLTEVEMDHYREPFLNPVDREPLWRFPNELPIAGEPANIVALVEEYMDWLHQSPVPKLLFWGTPGVLIPPAEAARLAKSLPNCKAVDIGPGLNLLQEDNPDLIGSEIARWLSTLEISGLE); assay: as above; type: cell-based
T5 construct: expressed in transfected cells; host or cells: HEK 293T
T5 sequence (P31421 with tags, fused parts or gaps with the stated changes): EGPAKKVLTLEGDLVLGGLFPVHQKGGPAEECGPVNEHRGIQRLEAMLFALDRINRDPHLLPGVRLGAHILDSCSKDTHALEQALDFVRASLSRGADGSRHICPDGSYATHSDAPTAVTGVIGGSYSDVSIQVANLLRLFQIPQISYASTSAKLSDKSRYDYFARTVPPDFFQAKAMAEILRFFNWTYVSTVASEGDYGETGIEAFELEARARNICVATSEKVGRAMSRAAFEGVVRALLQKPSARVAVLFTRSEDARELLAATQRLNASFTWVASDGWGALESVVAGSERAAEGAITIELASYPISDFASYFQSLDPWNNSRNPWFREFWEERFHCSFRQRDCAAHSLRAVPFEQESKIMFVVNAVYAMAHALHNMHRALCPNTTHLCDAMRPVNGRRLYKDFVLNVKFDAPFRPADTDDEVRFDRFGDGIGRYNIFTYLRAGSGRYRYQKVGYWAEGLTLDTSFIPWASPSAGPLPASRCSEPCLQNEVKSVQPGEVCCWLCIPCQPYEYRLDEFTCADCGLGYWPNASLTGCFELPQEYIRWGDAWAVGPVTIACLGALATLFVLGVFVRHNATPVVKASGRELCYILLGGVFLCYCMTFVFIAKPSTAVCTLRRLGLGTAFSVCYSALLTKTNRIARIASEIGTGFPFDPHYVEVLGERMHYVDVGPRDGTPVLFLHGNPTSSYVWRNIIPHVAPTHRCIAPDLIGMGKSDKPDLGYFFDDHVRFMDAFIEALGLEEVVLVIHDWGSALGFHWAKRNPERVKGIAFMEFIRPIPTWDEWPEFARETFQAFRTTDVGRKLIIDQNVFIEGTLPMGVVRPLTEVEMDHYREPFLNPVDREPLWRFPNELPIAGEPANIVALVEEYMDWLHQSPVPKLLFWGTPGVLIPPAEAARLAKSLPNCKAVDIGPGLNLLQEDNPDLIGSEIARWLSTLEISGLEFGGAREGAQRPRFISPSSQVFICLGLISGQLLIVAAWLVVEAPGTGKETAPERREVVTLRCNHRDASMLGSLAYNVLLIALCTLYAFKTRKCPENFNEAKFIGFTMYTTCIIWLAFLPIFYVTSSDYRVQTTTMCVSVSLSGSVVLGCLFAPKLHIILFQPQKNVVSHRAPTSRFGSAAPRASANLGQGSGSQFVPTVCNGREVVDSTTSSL

mGluR2-C121A-3xTM4-I779A = molecular target: T6, mGluR2-C121A-3xTM4-I779A (Rattus norvegicus, UniProt P31421, A677S/A681F/A685G/C121A/I779A); assay: SiMPull subunit counting in the presence of ligands; conditions: SNAP-mGluR2-C121A-3xTM4-I779A in presence of the ligand; single replicates per experiment day
T6 construct: expressed in transfected cells; host or cells: HEK 293 T (detergent lysate, pulled down by anti-HA antibody)
T6 sequence (P31421 19-872 C121A/A677S/A681F/A685G/I779A): as the sequence (P31421 19-872 I779W) above, with C103A, A659S, A663F, A667G, W761A counted along it

mGluR3 = mGluR3 (Rattus norvegicus, UniProt P31422, INS669ASEIGTGFPFDPHYVEVLGERMHYVDVGPRDGTPVLFLHGNPTSSYVWRNIIPHVAPTHRCIAPDLIGMGKSDKPDLGYFFDDHVRFMDAFIEALGLEEVVLVIHDWGSALGFHWAKRNPERVKGIAFMEFIRPIPTWDEWPEFARETFQAFRTTDVGRKLIIDQNVFIEGTLPMGVVRPLTEVEMDHYREPFLNPVDREPLWRFPNELPIAGEPANIVALVEEYMDWLHQSPVPKLLFWGTPGVLIPPAEAARLAKSLPNCKAVDIGPGLNLLQEDNPDLIGSEIARWLSTLEISGLE); assay: Inter-TMD FRET sensor (HaloTag in ICL2), live cells; conditions: for FRET response amplitude: mGluR3, inter-TMD FRET;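 on all read-outs here: receptor HaloTag labeled with JF549 donor and JF646 acceptor (1:3), FRET taken as acceptor over summed donor plus acceptor fluorescence intensity, imaged at room temperature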
mGluR3, sequence (P31422 with tags, fused parts or gaps with the stated changes): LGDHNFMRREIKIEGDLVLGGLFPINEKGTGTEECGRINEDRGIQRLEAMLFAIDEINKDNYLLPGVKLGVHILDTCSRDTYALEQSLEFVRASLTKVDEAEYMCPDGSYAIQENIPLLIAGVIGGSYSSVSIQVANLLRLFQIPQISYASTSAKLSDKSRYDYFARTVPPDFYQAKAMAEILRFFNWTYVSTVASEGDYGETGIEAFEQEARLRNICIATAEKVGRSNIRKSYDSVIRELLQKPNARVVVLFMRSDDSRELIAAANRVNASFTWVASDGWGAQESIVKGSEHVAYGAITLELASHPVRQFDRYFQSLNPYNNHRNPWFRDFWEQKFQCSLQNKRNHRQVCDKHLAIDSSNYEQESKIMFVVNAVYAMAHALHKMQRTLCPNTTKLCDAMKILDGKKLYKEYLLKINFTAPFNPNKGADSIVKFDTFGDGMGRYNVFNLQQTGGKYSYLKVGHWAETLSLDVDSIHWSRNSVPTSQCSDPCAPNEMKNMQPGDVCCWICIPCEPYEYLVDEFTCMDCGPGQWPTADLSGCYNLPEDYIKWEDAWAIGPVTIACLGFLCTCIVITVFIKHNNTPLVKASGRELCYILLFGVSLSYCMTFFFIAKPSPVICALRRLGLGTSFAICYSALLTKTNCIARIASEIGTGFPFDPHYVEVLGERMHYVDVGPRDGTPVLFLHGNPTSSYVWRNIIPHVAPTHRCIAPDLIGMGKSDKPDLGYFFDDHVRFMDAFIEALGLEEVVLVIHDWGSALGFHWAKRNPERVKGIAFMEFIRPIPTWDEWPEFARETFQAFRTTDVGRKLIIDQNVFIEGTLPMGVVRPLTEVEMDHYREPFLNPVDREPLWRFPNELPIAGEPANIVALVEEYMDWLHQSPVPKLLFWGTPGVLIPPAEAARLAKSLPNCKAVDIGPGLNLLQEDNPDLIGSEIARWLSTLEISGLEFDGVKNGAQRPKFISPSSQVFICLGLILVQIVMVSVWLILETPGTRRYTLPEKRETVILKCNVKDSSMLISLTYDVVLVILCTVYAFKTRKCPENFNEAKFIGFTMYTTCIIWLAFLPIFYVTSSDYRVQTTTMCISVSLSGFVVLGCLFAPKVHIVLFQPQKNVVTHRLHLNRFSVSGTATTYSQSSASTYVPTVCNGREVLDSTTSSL

T1 sequence (P31421 19-872 A677S/A681F/A685G): as the sequence (P31421 19-872 I779W) above, with A659S, A663F, A667G, W761I counted along it

N[C@@H](CCC(=O)O)C(=O)O [glutamate]
FRET response amplitude (mGluR2-3xTM4 [1]; Glutamate 10 nM): 0.00 | FRET response amplitude (mGluR2-3xTM4 [1]; Glutamate 100 nM): 0.00 | FRET response amplitude (mGluR2-3xTM4 [1]; Glutamate 3 uM): 0.10 | FRET response amplitude (mGluR2-3xTM4 [1]; Glutamate 10 uM): 0.49 and 0.37 | FRET response amplitude (mGluR2-3xTM4 [1]; Glutamate 100 uM): 1.00 and 0.97 | FRET response amplitude (mGluR2-3xTM4 [1]; Glutamate 1 mM): 1.00 | Calcium response amplitude (mGluR2-I779W; Glutamate concentration 10 nM): 0.00 | Calcium response amplitude (mGluR2-I779W; Glutamate concentration 5 uM): 0.52 and 0.53 | Calcium response amplitude (mGluR2-I779W; Glutamate concentration 10 uM): 0.95 and 0.79 and 0.94 and 0.76 | Calcium response amplitude (mGluR2-I779W; Glutamate concentration 100 uM): 1.00 | Calcium response amplitude (mGluR2-I779W; Glutamate concentration 1 mM): 1.00 | Calcium response amplitude (mGluR3-F690A; Glutamate 10 nM): 0.00 | Calcium response amplitude (mGluR3-F690A; Glutamate 100 nM): 0.00 | Calcium response amplitude (mGluR3-F690A; Glutamate 3 uM): 0.33 and 0.27 | Calcium response amplitude (mGluR3-F690A; Glutamate 10 uM): 0.40 and 0.44 and 0.57 and 0.58 | Calcium response amplitude (mGluR3-F690A; Glutamate 100 uM): 1.00 and 0.86 | Calcium response amplitude (mGluR3-F690A; Glutamate 1 mM): 1.00 | EC50 (mGluR3-F690A; read-out: Glutamate EC50, calcium imaging, normalized to saturating (1 mM) glutamate): 9.59 ± 0.06 µM | % Dimerization (mGluR2-C121A-I779A): 54.00% and 69.67% and 69.76% and 51.05% and 59.66% and 56.67% | GIRK current amplitude (mGluR2-3xTM4 [2]; Glutamate 10 nM): 0.000 | GIRK current amplitude (mGluR2-3xTM4 [2]; Glutamate 100 uM): 0.955 and 1.148 and 1.101 | GIRK current amplitude (mGluR2-3xTM4 [2]; Glutamate 1 mM): 1.000 | FRET response amplitude (mGluR2-I779A; Glutamate 10 nM): 0.00 | FRET response amplitude (mGluR2-I779A; Glutamate 100 nM): 0.00 | FRET response amplitude (mGluR2-I779A; Glutamate 1 uM): 0.00 | FRET response amplitude (mGluR2-I779A; Glutamate 100 uM): 0.75 and 0.90 and 0.82 | FRET response amplitude (mGluR2-I779A; Glutamate 1 mM): 1.00 | change in glutamate EC50 compared to mGluR2 (mGluR2-I779A; inter-TMD FRET sensor, right shift): two-fold | FRET response amplitude (mGluR2-3xTM4 [3]; Glutamate 10 nM): 0.00 | FRET response amplitude (mGluR2-3xTM4 [3]; Glutamate 100 nM): 0.0446 | FRET response amplitude (mGluR2-3xTM4 [3]; Glutamate 1 uM): 0.14 and 0.10 and 0.11 | FRET response amplitude (mGluR2-3xTM4 [3]; Glutamate 10 uM): 0.89 and 0.71 | FRET response amplitude (mGluR2-3xTM4 [3]; Glutamate 100 uM): 1.00 | FRET response amplitude (mGluR2-3xTM4 [3]; Glutamate 1 mM): 1.00 | % Dimerization (mGluR2-C121A-3xTM4-I779A): 44.05% and 34.78% and 55.93% and 49.13% and 47.14% and 45.12% | FRET response amplitude (mGluR3; Glutamate 1 nM): 0.00 | FRET response amplitude (mGluR3; Glutamate 1 uM): 0.66 and 0.83 and 0.95 and 0.97 and 0.93 and 0.79 and 0.73 | FRET response amplitude (mGluR3; Glutamate 10 uM): 0.80 and 0.95 and 0.97 and 1.05 and 0.98 and 0.87 | FRET response amplitude (mGluR3; Glutamate 100 uM): 0.99 and 0.97 and 0.96 and 1.00 | FRET response amplitude (mGluR3; Glutamate 1 mM): 1.00 | EC50 (mGluR3; read-out: Glutamate EC50, inter-TMD FRET, normalized to saturating (1 mM) glutamate, unit inferred): 0.23 ± 0.08 µM
